In patent publication US20260306491A1, “EGFR INHIBITOR FOR TREATING CANCERS COMPRISING ATYPICAL EGFR MUTATIONS” (ORIC Pharmaceuticals, Inc., priority 2023, published 2026):
“And” between values parts separate entries of the source, which are not always exact repeats. Identical values can stand only once.

Assays:
[1] = molecular target: T1, EGFR WT (Homo sapiens, UniProt P00533); assay: EGFR kinase activity (AQT0794 peptide, Sox fluorescence); format: biochemical; conditions: 1 mM ATP, 2.0 nM enzyme, room temperature
T1 construct: purchased ThermoFisher PV3872
Protocol: (§1) Compound I was dissolved in DMSO to generate a 10 mM stock solution. Dosing solutions for biochemical assays were prepared by serial dilution in DMSO followed by dilution in assay buffers as described in the experimental procedures. Stock formulations were stored at −80° C. and dosing solutions were prepared for each experiment immediately prior to use.
(§2) Activity of human recombinant EGFR wildtype and mutant proteins was measured by the phosphorylation of a peptide substate via chelation-enhanced fluorescence using the sulfonamido-oxine (Sox) chromophore detection format. Compound I was solubilized in DMSO. 16-point half log titrations in 100% DMSO were carried out by a Bravo liquid handler (Agilent) in a 384-well polypropylene plate (Greiner Cat. #781201). Using the Bravo liquid handler, intermediate 1:10 dilutions in a 384-well polypropylene plate were created in assay buffer. For the enzymatic reactions, 5 μL from the intermediate compound dilution plate was transferred to a low volume 384 well, black flat-bottom polystyrene microplate (Greiner Cat. #784076). A separate plate was generated for each enzyme. Next, 5 μL of a 4× ATP/AQT0794 working solution was added to the assay plate. Finally, 10 μL of 2× enzyme was added to start the reactions. The plate was sealed with a PerkinElmer TopSeal-A Plus plate seal (Cat. #6050185) and read at excitation (360 nm) and emission (492 nm) in continuous kinetic mode every 2 minutes for 3 hours at room temperature. Reactions were performed in 50 mM HEPES, pH 7.5, 1 mM ATP, 1.0 mM DTT, 0.015% Brij-35, 0.01% BSA, 1.0 mM EGTA, 10 mM MgCl2, 10 μM EGFR peptide substrate probe from AssayQuant (Cat. #AQT0794) plus recombinant EGFR protein (Table 1). The final DMSO concentration was 2.5%.
(§3) Real-time continuous kinetic data were loaded into Dotmatics software where slopes were calculated, converted to % inhibitions and IC50s were generated using the four-parameter non-linear regression curve fit. Reactions lacking enzymes were used as 100% inhibition controls. After addition of recombinant EGFR and its substrates ATP and AQT0794, the activity of EGFR was measured by quantification of the phosphorylation of the AQT0794 peptide substate via chelation-enhanced fluorescence using the sulfonamido-oxine (Sox) chromophore detection format with diminishing signal indicative of inhibition of EGFR activity.

[2] = molecular target: T2, EGFR_G719C (Homo sapiens, UniProt P00533, G719C); assay: as above; format: biochemical; conditions: 1 mM ATP, 5.0 nM enzyme, room temperature
T2 construct: purchased SignalChem E10-12FG
Protocol: as §1, §2, §3

[3] = molecular target: T3, EGFR_G719S (Homo sapiens, UniProt P00533, G719S); assay: as above; format: biochemical; conditions: 1 mM ATP, 1.0 nM enzyme, room temperature
T3 construct: purchased SignalChem E10-12HG
Protocol: as §1, §2, §3

[4] = molecular target: T4, EGFR_L718Q (Homo sapiens, UniProt P00533, L718Q); assay: as above; format: biochemical; conditions: 1 mM ATP, 2.0 nM enzyme, room temperature
T4 construct: purchased SignalChem E10-122G2G
Protocol: as §1, §2, §3

[5] = molecular target: T5, EGFR_L747S (Homo sapiens, UniProt P00533, L747S); assay: as above; format: biochemical; conditions: 1 mM ATP, 0.5 nM enzyme, room temperature
T5 construct: purchased SignalChem E10-122Y2G
Protocol: as §1, §2, §3

[6] = molecular target: T6, EGFR_L792H (Homo sapiens, UniProt P00533, L792H); assay: as above; format: biochemical; conditions: 1 mM ATP, 1.0 nM enzyme, room temperature
T6 construct: purchased SignalChem E10-122J2G
Protocol: as §1, §2, §3

[7] = molecular target: T7, EGFR_d746-750 G724S (Homo sapiens, UniProt P00533, DEL746-750/G724S); assay: as above; format: biochemical; conditions: 1 mM ATP, 2.0 nM enzyme, room temperature
T7 construct: purchased SignalChem E10-122D3G
Protocol: as §1, §2, §3

[8] = molecular target: T8, EGFR_d746-750 S768I (Homo sapiens, UniProt P00533, DEL746-750/S768I); assay: as above; format: biochemical; conditions: 1 mM ATP, 2.0 nM enzyme, room temperature
T8 construct: purchased SignalChem E10-122B3G
Protocol: as §1, §2, §3

[9] = tested on: EGFR exon 20 insertion mutated NSCLC; assay: Clinical study: duration of treatment and antitumor response, EGFR exon 20 insertion mutated NSCLC (Example 10); format: in vivo, human; conditions: oral hemifumarate, one value per subject
Protocol: (§4) A clinical study was conducted using Compound I in human subjects having non-small cell lung cancer (NSCLC) comprising EGFR exon 20 insertion mutations, HER2 exon 20 insertion mutations, or HER2 amplification or overexpression. A total of 50 human subjects having non-small cell lung cancer comprising one or more EGFR exon 20 insertion mutations, HER2 exon 20 insertion mutations, or HER2 amplification or overexpression were enrolled in the study as of Jul. 31, 2023 with data collected as of Sep. 26, 2023. The subjects were enrolled into one of ten dosing cohorts that were each orally administered Compound I in the form of a hemifumarate salt as shown in Table 13 (QD=once per day; BID=twice per day).
(§5) Duration of treatment and antitumor responses achieved in evaluable subjects with EGFR exon 20 insertion mutated NSCLC (dose level greater than or equal to 45 mg TDD and at least one post-baseline tumor assessment) who were administered Compound I in the form of a hemifumarate salt are set forth in Tables 19 and 20, respectively.

[10] = tested on: HER2 exon 20 insertion mutated NSCLC; assay: Clinical study: duration of treatment and antitumor response, HER2 exon 20 insertion mutated NSCLC (Example 10); format: in vivo, human
Protocol: as §4
as §5, with “HER2” for “EGFR”, “mutate” for “mutated”, “21” for “19”, “22,” for “20,”

T2 sequence (P00533 25-1210 G719C): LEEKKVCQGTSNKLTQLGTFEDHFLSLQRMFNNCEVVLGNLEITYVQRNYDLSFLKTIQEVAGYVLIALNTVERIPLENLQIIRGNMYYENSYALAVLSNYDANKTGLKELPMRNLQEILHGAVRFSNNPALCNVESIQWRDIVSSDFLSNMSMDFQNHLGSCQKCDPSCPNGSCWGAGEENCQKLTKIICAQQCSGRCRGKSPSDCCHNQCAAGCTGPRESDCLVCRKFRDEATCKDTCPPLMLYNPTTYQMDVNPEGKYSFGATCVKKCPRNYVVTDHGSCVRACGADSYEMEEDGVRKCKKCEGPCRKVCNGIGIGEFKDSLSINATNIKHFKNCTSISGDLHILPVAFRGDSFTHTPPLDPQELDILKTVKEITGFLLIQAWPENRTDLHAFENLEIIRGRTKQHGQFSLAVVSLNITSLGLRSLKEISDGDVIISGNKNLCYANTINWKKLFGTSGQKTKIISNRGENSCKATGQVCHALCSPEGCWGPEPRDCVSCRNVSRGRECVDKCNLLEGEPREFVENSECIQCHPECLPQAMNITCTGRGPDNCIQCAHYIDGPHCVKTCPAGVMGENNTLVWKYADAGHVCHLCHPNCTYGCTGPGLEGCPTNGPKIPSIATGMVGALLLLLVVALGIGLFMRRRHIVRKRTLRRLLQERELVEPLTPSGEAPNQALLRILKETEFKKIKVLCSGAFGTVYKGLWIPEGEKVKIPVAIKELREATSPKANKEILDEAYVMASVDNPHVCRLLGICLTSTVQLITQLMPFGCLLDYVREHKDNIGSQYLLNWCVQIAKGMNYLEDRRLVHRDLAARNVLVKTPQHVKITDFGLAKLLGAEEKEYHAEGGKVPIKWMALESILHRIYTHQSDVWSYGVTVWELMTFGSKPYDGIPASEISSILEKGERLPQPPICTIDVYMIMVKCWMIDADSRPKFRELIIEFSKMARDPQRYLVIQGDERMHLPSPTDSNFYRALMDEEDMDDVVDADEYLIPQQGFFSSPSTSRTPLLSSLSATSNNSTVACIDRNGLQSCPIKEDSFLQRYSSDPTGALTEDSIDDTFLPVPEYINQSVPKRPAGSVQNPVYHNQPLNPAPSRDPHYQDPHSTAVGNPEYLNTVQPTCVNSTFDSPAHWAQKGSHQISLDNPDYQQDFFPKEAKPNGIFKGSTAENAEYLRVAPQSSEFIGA
T4 sequence (P00533 25-1210 L718Q): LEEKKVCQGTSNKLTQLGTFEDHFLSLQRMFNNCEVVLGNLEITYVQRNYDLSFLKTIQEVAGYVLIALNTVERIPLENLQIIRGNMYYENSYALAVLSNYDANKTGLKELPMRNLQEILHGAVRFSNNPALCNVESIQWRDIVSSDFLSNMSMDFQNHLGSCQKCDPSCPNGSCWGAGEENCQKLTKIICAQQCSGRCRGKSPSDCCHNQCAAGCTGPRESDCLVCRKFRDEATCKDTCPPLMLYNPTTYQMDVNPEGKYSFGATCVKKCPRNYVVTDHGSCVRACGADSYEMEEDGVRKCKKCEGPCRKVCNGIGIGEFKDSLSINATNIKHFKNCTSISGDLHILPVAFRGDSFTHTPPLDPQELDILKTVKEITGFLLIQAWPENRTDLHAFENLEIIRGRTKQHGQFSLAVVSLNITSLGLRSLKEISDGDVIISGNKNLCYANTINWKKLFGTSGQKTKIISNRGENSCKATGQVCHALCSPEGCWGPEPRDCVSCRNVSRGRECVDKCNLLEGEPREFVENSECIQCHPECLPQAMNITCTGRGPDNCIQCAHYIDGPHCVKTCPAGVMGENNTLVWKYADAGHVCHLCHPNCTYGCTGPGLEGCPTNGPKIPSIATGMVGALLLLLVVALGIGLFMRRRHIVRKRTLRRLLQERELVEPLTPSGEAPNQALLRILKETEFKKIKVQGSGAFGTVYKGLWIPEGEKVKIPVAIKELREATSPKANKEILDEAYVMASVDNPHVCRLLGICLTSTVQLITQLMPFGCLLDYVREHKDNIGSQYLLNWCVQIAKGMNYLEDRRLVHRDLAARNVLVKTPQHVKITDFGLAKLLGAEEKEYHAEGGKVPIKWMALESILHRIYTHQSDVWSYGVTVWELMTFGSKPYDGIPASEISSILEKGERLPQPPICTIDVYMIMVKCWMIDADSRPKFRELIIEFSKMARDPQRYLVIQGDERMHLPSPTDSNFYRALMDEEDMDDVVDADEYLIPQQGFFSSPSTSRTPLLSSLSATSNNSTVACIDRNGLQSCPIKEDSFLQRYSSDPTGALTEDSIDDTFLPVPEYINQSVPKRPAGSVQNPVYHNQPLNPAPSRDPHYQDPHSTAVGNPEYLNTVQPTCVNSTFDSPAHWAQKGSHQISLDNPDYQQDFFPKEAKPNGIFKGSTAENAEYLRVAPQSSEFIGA
T7 sequence (P00533 with tags, fused parts or gaps G724S/DEL746-750): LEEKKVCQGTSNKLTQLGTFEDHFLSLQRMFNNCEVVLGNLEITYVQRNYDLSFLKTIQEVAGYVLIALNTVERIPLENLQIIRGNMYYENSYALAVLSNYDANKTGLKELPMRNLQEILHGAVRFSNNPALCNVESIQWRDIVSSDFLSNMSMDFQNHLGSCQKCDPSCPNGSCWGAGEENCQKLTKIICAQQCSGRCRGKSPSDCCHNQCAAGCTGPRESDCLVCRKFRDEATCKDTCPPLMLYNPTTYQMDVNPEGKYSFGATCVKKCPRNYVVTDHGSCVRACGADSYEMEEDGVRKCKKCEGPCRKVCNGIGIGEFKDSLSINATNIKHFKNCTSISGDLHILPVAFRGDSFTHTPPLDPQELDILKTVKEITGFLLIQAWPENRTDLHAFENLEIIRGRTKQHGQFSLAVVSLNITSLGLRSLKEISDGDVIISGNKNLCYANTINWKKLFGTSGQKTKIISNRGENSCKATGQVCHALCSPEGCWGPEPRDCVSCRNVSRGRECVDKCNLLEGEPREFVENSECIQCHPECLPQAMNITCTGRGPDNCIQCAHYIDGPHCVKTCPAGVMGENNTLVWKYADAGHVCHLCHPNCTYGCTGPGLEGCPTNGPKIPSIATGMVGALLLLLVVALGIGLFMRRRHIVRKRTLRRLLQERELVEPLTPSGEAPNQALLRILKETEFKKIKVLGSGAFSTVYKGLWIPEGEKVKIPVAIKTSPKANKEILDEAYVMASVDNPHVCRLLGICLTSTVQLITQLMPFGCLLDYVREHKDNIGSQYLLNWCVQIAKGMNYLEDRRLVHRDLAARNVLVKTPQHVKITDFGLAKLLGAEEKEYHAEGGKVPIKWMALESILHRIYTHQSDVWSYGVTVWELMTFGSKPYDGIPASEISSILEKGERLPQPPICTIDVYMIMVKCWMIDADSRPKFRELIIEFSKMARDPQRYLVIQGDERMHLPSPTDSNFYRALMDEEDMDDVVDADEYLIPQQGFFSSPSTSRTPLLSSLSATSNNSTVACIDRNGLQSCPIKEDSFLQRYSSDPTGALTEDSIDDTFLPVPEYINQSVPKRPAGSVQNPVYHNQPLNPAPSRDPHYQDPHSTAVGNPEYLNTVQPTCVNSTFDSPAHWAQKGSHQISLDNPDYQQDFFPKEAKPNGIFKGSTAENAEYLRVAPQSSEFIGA
T5 sequence (P00533 25-1210 L747S): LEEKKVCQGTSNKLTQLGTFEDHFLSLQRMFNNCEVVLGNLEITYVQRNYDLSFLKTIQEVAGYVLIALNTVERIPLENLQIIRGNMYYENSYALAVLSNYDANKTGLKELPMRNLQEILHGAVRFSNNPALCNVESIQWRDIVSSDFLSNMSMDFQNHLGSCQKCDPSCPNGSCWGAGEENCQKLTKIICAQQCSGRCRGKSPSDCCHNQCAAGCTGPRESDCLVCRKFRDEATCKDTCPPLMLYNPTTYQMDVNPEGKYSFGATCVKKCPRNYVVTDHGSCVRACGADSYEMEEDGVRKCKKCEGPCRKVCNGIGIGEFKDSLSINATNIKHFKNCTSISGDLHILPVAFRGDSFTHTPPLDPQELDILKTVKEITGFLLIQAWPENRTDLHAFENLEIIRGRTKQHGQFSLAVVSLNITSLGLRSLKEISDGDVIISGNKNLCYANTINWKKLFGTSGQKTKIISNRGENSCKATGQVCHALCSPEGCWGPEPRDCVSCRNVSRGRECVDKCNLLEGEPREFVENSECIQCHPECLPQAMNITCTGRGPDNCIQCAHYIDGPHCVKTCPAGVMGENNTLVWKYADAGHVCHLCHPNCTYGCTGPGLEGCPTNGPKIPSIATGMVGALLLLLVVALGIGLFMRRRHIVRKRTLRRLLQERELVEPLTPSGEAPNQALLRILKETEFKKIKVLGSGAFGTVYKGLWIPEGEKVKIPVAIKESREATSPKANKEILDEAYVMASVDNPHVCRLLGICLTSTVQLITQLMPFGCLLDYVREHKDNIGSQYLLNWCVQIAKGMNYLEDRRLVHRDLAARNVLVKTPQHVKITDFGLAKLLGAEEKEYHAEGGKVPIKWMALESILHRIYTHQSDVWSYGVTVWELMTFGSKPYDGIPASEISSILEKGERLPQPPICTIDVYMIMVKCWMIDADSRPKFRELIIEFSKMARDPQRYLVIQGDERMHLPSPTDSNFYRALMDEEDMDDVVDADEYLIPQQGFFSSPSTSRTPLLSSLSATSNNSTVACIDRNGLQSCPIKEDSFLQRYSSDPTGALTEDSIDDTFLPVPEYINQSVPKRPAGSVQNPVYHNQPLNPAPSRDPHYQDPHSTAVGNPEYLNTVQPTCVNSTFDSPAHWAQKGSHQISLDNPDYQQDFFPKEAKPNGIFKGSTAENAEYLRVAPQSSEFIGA

Question: How did the IC50 [1] turn out when `C=CC(=O)Nc1cc(Nc2cc(N3OCC[C@@H]3c3cc(F)cc(F)c3)ncn2)c(OC)cc1N1CCC(N2CCN(C3CC3)CC2)CC1` [Compound I, N-[2-[4-(4-cyclopropyl-1-piperazinyl)-1-piperidinyl]-5-[[6-[(3R)-3-(3,5-difluorophenyl)-2-isoxazolidinyl]-4-pyrimidinyl]amino]-4-methoxyphenyl]-2-propenamide] was run?
Answer: Its IC50 is 2.3 ± 1.1 nM.

Question: And the IC50 [2]?
Answer: The IC50 was 0.6 nM.

Question: And the IC50 [3]?
Answer: Its IC50 is 0.9 nM.

Question: What about the IC50 [4] of the same compound?
Answer: Its IC50 is 3.7 nM.

Question: What about the IC50 [5] of the same compound?
Answer: Its IC50 is 1.5 nM.

Question: And the IC50 [6]?
Answer: Its IC50 is 16 nM.

Question: What about the IC50 [7] of the same compound?
Answer: Its IC50 is 3.5 nM.

Question: And the IC50 [8]?
Answer: The IC50 was 1 nM.

Question: And the Duration of treatment ([9]; dosing cohort 30 BID)?
Answer: Its Duration of treatment is “ongoing”.

Question: And the Duration of treatment ([9]; dosing cohort 45 QD)?
Answer: Its Duration of treatment is 84 days and ongoing and 134 days and 28 days.

Question: And the Duration of treatment ([9]; dosing cohort 60 QD)?
Answer: The Duration of treatment was 33 days and ongoing and 20 days.

Question: What about the Duration of treatment ([9]; dosing cohort 75 QD) of the same compound?
Answer: Its Duration of treatment is 90 days and 109 days and 20 days and ongoing.

Question: And the Duration of treatment ([9]; dosing cohort 90 QD)?
Answer: Its Duration of treatment is 28 days and 52 days.

Question: What about the Duration of treatment ([10]; oral hemifumarate, dosing cohort 30 BID, one value per subject) of the same compound?
Answer: Its Duration of treatment is 79 days and Ongoing (3×) and 54 days.

Question: And the Duration of treatment ([10]; oral hemifumarate, dosing cohort 45 QD, one value per subject)?
Answer: Its Duration of treatment is “Ongoing”.

Question: And the Duration of treatment ([10]; oral hemifumarate, dosing cohort 60 QD, one value per subject)?
Answer: Its Duration of treatment is 28 days.

Question: What about the Duration of treatment ([10]; oral hemifumarate, dosing cohort 75 QD, one value per subject) of the same compound?
Answer: Its Duration of treatment is 179 days and 47 days.

Question: What about the Duration of treatment ([10]; oral hemifumarate, dosing cohort 90 QD, one value per subject) of the same compound?
Answer: Its Duration of treatment is “Ongoing”.

Question: And the “Best percent change in the sum of target lesions from baseline” value ([10]; oral hemifumarate, ≥45 mg TDD, one value per subject (subjects 1 to 13))?
Answer: The value was 0% (2×) and −3% and −19% and −31% and −33% and −34% and −55% and −100% and 31% and 11% and 9% and 5%.

Question: And the Duration of treatment ([10]; po)?
Answer: Its Duration of treatment is 2 days.
